Source: publication PMC6527550, “Discovery of processive catalysis by an exo-hydrolase with a pocket-shaped active site” (Nature Communications, 2019)
Read-outs that look alike come from different tables or passages of the source.

Key:
native HvExoI = native HvExoI (Hordeum vulgare, UniProt Q9XEI3); test: Inhibition kinetics (Ki) with 4-nitrophenyl β-D-glucopyranoside substrate; format: biochemical, barley (Hordeum vulgare); conditions: for ΔG: calculated from Ki; for ΔG / Ki: native HvExoI; for Ki: inhibition kinetics, 4-nitrophenyl β-D-glucopyranoside substrate, 30 °C, pH 5.25
Protocol: Ki values of deoxy-glucose and alkyl β-D-glucoside derivatives, and G2SG-OMe with native HvExoI were derived from hydrolytic rates. Enzyme inactivation was monitored at 30 °C by incubating […] of the enzyme in 100 mM sodium acetate buffer, pH 5.25, containing 0.8–6.6 mM 4NPGlc as a substrate, 160 μg/ml BSA, and 3dGlc, 4dGlc, octyl-O-Glc, octyl-S-Glc and G2SG-OMe. Each inhibitor was tested at six concentrations at 0.4–3 times the Ki values in duplicate. We used the v = Vmax S / [KM × (1 + I/Ki) + S] equation to calculate Ki constant; Ki is defined as a dissociation constant of the enzyme-inhibitor complex. The enzyme activity was monitored at 410 nm and Dixon plots were used to determine Ki under the pseudo-first-order rate limiting conditions by a non-linear regression analysis, as described previously.

recombinant HvExoI = recombinant HvExoI (Hordeum vulgare, UniProt Q9XEI3); test: Steady-state affinity binding by Surface Plasmon Resonance; parameters: species or system barley (Hordeum vulgare); conditions: for ΔG: calculated from KD
Protocol: Interaction between recombinant HvExoI and analytes Glc (molecular mass 180.2 g), G6SG-OMe (372.4 g) and PEG (n = 5–10); (380–420 g) were performed using Surface Plasmon Resonance (SPR) at 25 °C using the Biacore X100 V2.0.1 instrument (GE Healthcare, USA) equipped with the plus package. Purified recombinant HvExoI at 99% homogeneity (detected by SDS-PAGE) was covalently attached to a CM5 chip (GE Healthcare) in 10 mM sodium acetate buffer, pH 5.0. The carboxymethyl groups present on the dextran layer of the CM5 chip were activated with 1-ethyl-3-(3-dimethylaminopropyl) carbodiimide hydrochloride (EDC) and N-hydroxysuccinimide (NHS) (GE Healthcare). Any unoccupied reactive sites were blocked by a 7 min injection of 1 M ethanolamine hydrochloride-NaOH, pH 8.5. A ligand density of ~15.000 RU of recombinant HvExoI was achieved. Due to the fast rate constants of interactions, it was impossible to obtain individual rate constants ka and kd. […] For each interaction serial dilutions of analytes covering the 10 · KD − 0.1 · KD concentration ranges were prepared in 10 mM HEPES-NaOH buffer, pH 7.4 with 150 mM NaCl. Samples were injected onto the surface of a chip at a rate of 30 µl/min for 90 s, after which the formed enzyme/analyte complexes could dissociate for 90 s. As all analytes dissociated completely from the surface of the recombinant enzyme immobilised on a chip, no regeneration steps were needed. All responses were double referenced using a blank-immobilised reference surface (NHS + EDC-activated/deactivated) and a series of blank injections conducted to account for the system and injection artefacts. For each analyte at least one concentration was injected in duplicate. Triplicate experiments were performed, and the double-referenced data were globally fitted using a 1:1 equilibrium interaction model and the Biacore T200 v2.0 analysis software (GE Healthcare). Steady-state affinity binding constants KD (Supplementary Fig. 3) were calculated 30 s after the onset of injections using a 5 s window in an average response in the fit.

recombinant HvExoI, sequence (Q9XEI3 entry or part of it): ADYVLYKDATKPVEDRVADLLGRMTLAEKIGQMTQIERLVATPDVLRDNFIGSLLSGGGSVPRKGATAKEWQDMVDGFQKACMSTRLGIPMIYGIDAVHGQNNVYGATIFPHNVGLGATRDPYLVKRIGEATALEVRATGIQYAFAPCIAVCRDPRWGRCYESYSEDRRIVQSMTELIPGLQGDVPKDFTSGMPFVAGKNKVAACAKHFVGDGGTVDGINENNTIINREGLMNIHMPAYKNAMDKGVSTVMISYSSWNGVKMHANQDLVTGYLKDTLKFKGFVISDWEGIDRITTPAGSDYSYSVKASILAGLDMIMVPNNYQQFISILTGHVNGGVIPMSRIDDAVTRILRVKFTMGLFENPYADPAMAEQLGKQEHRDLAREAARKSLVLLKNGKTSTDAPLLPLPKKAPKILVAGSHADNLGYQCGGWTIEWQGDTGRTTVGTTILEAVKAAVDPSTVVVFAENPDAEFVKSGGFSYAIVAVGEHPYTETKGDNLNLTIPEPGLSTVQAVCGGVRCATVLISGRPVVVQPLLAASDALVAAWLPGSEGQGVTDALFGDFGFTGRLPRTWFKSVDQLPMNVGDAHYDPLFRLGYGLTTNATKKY
native HvExoI, sequence (Q9XEI3 entry or part of it): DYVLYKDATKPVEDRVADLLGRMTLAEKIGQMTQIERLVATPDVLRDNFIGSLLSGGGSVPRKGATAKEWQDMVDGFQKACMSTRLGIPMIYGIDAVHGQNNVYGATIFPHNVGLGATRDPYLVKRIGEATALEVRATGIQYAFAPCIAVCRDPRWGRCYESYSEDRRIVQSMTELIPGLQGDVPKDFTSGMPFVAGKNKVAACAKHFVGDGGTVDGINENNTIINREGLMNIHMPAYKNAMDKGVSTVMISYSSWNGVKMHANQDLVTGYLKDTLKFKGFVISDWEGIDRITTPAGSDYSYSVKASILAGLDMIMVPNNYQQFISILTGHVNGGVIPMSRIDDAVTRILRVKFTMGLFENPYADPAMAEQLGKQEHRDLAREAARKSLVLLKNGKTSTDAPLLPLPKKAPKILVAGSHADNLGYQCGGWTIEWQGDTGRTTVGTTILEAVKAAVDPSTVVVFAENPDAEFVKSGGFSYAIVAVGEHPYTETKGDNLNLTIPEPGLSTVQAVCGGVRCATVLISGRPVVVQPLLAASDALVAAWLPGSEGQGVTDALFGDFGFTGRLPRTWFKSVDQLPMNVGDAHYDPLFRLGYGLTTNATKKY

| ΔG (native HvExoI) [kcal/mol] | Ki (native HvExoI) [µM] | fold weaker binding than G6SG-OMe (native HvExoI; Ki of G2SG-OMe compared with KD of G6SG-OMe) | Kd (recombinant HvExoI; steady-state affinity, Surface Plasmon Resonance, recombinant HvExoI, 25 °C, read-out: KD) [µM] | SMILES | ΔG (recombinant HvExoI; recombinant HvExoI) [kcal/mol] | Kd (recombinant HvExoI) [µM] |
| --- | --- | --- | --- | --- | --- | --- |
| -2.8 | 9800 | – | – | O=C[C@H](O)C[C@H](O)[C@H](O)CO [3dGlc, 3-deoxy-glucose] | – | – |
| – | – | – | 8 | CO[C@@H]1O[C@H](CS[C@@H]2O[C@H](CO)[C@@H](O)[C@H](O)[C@H]2O)[C@@H](O)[C@H](O)[C@H]1O [G6SG-OMe, methyl 6-S-β-D-glucopyranosyl-6-thio-β-D-glucopyranoside] | -6.96 | – |
| -4.11 | 1100 | – | – | CCCCCCCCS[C@@H]1O[C@H](CO)[C@@H](O)[C@H](O)[C@H]1O [Octyl-S-Glc, n-octyl 1-thio-β-D-glucopyranoside] | – | – |

The remaining lines, values behind:

| SMILES | ΔG (native HvExoI) [kcal/mol] | Ki (native HvExoI) [µM] | fold weaker binding than G6SG-OMe (native HvExoI; Ki of G2SG-OMe compared with KD of G6SG-OMe) | Kd (recombinant HvExoI; steady-state affinity, Surface Plasmon Resonance, recombinant HvExoI, 25 °C, read-out: KD) [µM] | ΔG (recombinant HvExoI; recombinant HvExoI) [kcal/mol] | Kd (recombinant HvExoI) [µM] |
| --- | --- | --- | --- | --- | --- | --- |
| O=C[C@H](O)[C@@H](O)C[C@H](O)CO [4dGlc, 4-deoxy-glucose] | -2.82 | 9400 | – | – | – | – |
| CO[C@@H]1O[C@H](CO)[C@@H](O)[C@H](O)[C@H]1S[C@@H]1O[C@H](CO)[C@@H](O)[C@H](O)[C@H]1O [G2SG-OMe, methyl 2-S-β-D-glucopyranosyl-2-thio-β-D-glucopyranoside] | -3.61 | 2550 | about 320 fold | – | – | – |
| OC[C@H]1OC(O)[C@H](O)[C@@H](O)[C@@H]1O (stereo partly drawn) [Glc] | – | – | – | – | -5.19 | 160 |
| CCCCCCCCO[C@@H]1O[C@H](CO)[C@@H](O)[C@H](O)[C@H]1O [Octyl-O-Glc, n-octyl β-D-glucopyranoside] | -5.4 | 130 | – | – | – | – |
